# From patent US20220031670A1, “PHARMACEUTICAL COMBINATIONS FOR USE IN THE TREATMENT OF NEOPLASTIC DISEASES” (Basilea Pharmaceutica International AG, priority 2018, published 2022)
# Marks after values point to notes of the source that are not given here.
# Columns and labels:
# [1] = Pharmacokinetic profile in mouse plasma (LC-MS/MS), single agents versus combination; type: in vivo, PAXF1657 tumor bearing mice; settings: 10 minutes to 24 hours, BAL101553 oral, Gemcitabine 240 mg/kg i.v. 4 hours before BAL101553
# Experimental: PAXF1657 tumor bearing mice of the identical strain were treated either with BAL101553 oral 10 mg/kg, Gemcitabine 240 i.v. mg/kg or with a combination of BAL101553 and Gemcitabine where Gemcitabine was administered 4 hours before BAL101553. Control animals received appropriate vehicle control. The mice were dosed until steady state was reached (BAL101553 was dosed d1-d3 and Gemcitabine was dosed on day 3, the doses used for the combination-treatment matched those used in the monotherapy). Blood was taken from every animal according to a determined schedule covering a time window of 10 minutes to 24 hours, processed for plasma and subsequently analyzed by LC-MS/MS for the determination of BAL27862 (parent drug of BAL101553) and Gemcitabine concentrations (ng/ml plasma). Data points represent mean values of ng/ml plasma concentration+/−SEM (n=3 animals). […]
# The following calibration ranges in mouse plasma were applied: 1.00 to 500 ng/mL and 10 to 10000 ng/mL for BAL27862 and 10.0 to 10000 ng/mL for BAL101553 and Gemcitabine. Thus, the limit-of-quantitation (LOQ) was: 1 ng/mL for BAL27862 and 10.0 ng/mL for BAL101553 and Gemcitabine. […]
# [2] = test system: patient-derived pancreatic tumour PAXF1657 xenograft; assay: Antitumor efficacy and induction of cures in the patient-derived PAXF1657 pancreatic xenograft model; type: in vivo, female NMRI nu/nu mice; settings: for # of regressed tumors (total) / T/C: day 21 after first dose; for # of confirmed cures (total) / # of tumors with TV ≤ 4 mm^3 (total) / % cures: day 60 after first dose (endpoint); for tumor free animals / cures (in words): single agent treatment (BAL101553 even at 16 mg/kg; Gemcitabine SoC)
# Experimental: The tumor xenografts are derived from surgical specimens from cancer patients. Following excision at surgery, tumor pieces were subcutaneously implanted into immunodeficient mice and are therefore referred to as patient tumor explants passaged subcutaneously in nude mice or as patient-derived tumor xenografts (PDX). Establishment and characterization of the PDXs was performed following their primary implantation into immunodeficient mice (passage 1). The tumor xenografts were passaged until establishment of a stable growth pattern. At that point, master stocks of early passage PDXs were frozen in liquid nitrogen. Usually, a particular stock batch is only used for a limited number of further passages.
# Tumor fragments for implantation were obtained from xenografts in serial passage in female NMRI nu/nu mice (NMRI-Foxn1nu). After removal from donor mice, tumors were cut into fragments (3-4 mm edge length) and placed in PBS containing 10% penicillin/streptomycin. Recipient female mice (10 weeks old NMRI-Foxn1nu animals) were anesthetized by inhalation of isoflurane and received unilateral tumor implants of PAXF1657 tumors subcutaneously in the flank.
# Mice and tumor implants were monitored daily until solid tumor growth was detectable in a sufficient number of animals. At randomization, the volume of growing tumors was determined. Tumors were measured (mm) in two dimensions using calipers, and volume was calculated using the formula: Tumor Volume (TV) (mm^3)=(width^2×length)/2. […] Sixteen days after tumor cell implantation, on Day 0 of the study, mice were randomized into groups of 10 animals, with group median tumor volumes of 106.6-109.2 mm^3 and body weights of 25.3-27.0 g.
# The solution of BAL101553 with a concentration of 1.6 mg/ml for dosing at 16 mg/kg and as stock solution for the preparation of the other dosing solutions was prepared at the beginning of the study by dissolving 595.2 mg of the provided powder in 300 ml vehicle (stirring/vortexing/sonicating if necessary). The acidity of this solution was adjusted to pH 5 with a 1% sodium acetate solution; afterwards the total volume was adjusted to 372 ml by addition of the vehicle (99.7% (v/v) saline solution (0.9% (w/v) NaCl), 0.3% (v/v) sodium acetate, pH 5). The stock solution was sterile filtered and aliquoted into vials of each 12 ml that were stored at −20° C. One vial was thawed on each dosing day. For the 16 mg/kg dose, the solution was applied undiluted; for 8 mg/kg dose, one volume of the stock solution was diluted with one volume vehicle prior to application; and for 10 mg/kg dose, one volume of the stock solution was diluted with 0.6 volumes vehicle
# The Gemcitabine dosing solution at a concentration of 24 mg/ml for dosing at 240 mg/kg was prepared once per week on the dosing day by dissolving 591.89 mg of Gemcitabine-HCl (Gemedac®, Medac Germany) corresponding to 264 mg active pharmaceutical ingredient in 11 ml of the vehicle (0.9% (w/v) NaCl). The dosing solution was administered in a dose volume of 10 ml/kg.
# All doses were adjusted to 10 mL/kg. […] Gemcitabine was administered i.v. and BAL101553 orally.
# The antitumor effect of the combination treatment with BAL101553 (prodrug of BAL27862) and gemcitabine was evaluated in the established in vivo subcutaneous patient-derived pancreatic mouse xenograft model PAXF1657. By using 3 different dosing regimens of BAL101553 as monotherapy, standard of care (SoC) dosing of gemcitabine monotherapy and the combination treatment of two different dosing regimens of BAL101553 with SoC gemcitabine, the anticancer effect of single agent treatments and of the combined treatments were determined and compared. […]
# [3] = Tolerability (body weight, mortalities) in the PAXF1657 pancreatic xenograft model
# Experimental: Animals were housed in individually ventilated cages ([…] Sealsafe™-IVC-System, […], Hohenpeissenberg, Germany), depending on group size, either in type III or type II long cages. They were kept under a 14 L:10D artificial light cycle. The temperature inside the cages was maintained at 25±1° C. with a relative humidity of 40-70% and an air change (AC) rate in the cage of 60-65 AC/hour. Dust-free bedding consisting of aspen wood chips with approximate dimensions of 5×5×1 mm (ABEDD®-LAB & VET Service GmbH, Vienna, Austria, Product Code: LTE E-001) and additional nesting material were used. The cages including the bedding and the nesting material were changed weekly. The animals were fed autoclaved Teklad Global 19% Protein Extruded Diet (T.2019S.12) from Envigo RMS SARL and had access to sterile filtered and acidified (pH 2.5) tap water that was changed twice weekly. Feed and water were provided ad libitum. All materials were autoclaved prior to use. Animals were provided with a nutrient fortified water gel (DietGel® Recovery from ClearH2O, Maine, USA) from day 0 to day 45, which was changed every other day.
# Groups of mice (n=10) bearing PAXF1657 tumors were dosed as outlined in Table 1. All doses were adjusted to 10 mL/kg. The control groups received oral doses of vehicle (pH 5 buffered 0.9% NaCl solution). Gemcitabine was administered i.v. and BAL101553 orally. When Gemcitabine and BAL0101553 were dosed in combination, Gemcitabine was administered first followed by a delay of 4 h for the BAL0101553 dosing.
# Body weights and tumor volumes were recorded twice weekly until the end of the on day 60. These parameters were analyzed and graphically represented by using GraphPad-Prism™ 7 for Windows according to standard procedure. Tumor growth regression was defined as TV (at day 21)−TV (day 0)<0. […] Tumor free animals at the end of the study time (day 60) were assessed for residual PAXF1657 tumor cells by pathological methods. Skin und subcutaneous tissue including the tumor cell inoculation site from the flank region were resected, preserved in formalin and embedded in paraffin. Sections of approximately 5 μm were mounted on glass slides and stained with hematoxylin/eosin and were evaluated by a trained pathologist, to identify residual tumor cells at the site of injection, and were being reported as positive for the existence of residual tumor cells or as negative for a complete lack of any evidence of residual tumor cells.
# Dosing schemes are outlined in Table 1.
# [4] = BAL101553 p.o. 8 mg/kg qd (h:4) x42
# [5] = BAL101553 p.o. 10 mg/kg qd (h:4) x42
# [6] = BAL101553 p.o. 16 mg/kg qd (h:4) x42
# [7] = Gemcitabine i.v. 240 mg/kg qw (h:0) x6
smiles,measurement,setting,value
"N#CCCNc1nonc1-c1nc2ccccc2n1CC(=O)c1ccc(N)cc1 [BAL27862, 3-(4-{1-[2-(4-Amino-phenyl)-2-oxo-ethyl]-1H-benzoimidazol-2-yl}-furazan-3-ylamino)-propionitrile]","plasma concentrations, single agents versus combination",[1],did not change significantly
"N#CCCNc1nonc1-c1nc2ccccc2n1CC(=O)c1ccc(NC(=O)[C@@H](N)CCCCN)cc1 [BAL101553, (S)-2,6-Diamino-hexanoic acid [4-(2-{2-[4-(2-cyano-ethylamino)-furazan-3-yl]-benzoimidazol-1-yl}-acetyl)-phenyl]-amide]",# of regressed tumors (total),[2]; [4],0 (10)
same,T/C,[2]; [4],0.52
same,# of confirmed cures (total),[2]; [4],0 (10)
same,# of tumors with TV ≤ 4 mm^3 (total),[2]; [4],0 (20)
same,% cures,[2]; [4],0%
same,# of regressed tumors (total),[2]; [5],0 (10)
same,T/C,[2]; [5],0.33
same,# of confirmed cures (total),[2]; [5],0 (10)
same,# of tumors with TV ≤ 4 mm^3 (total),[2]; [5],0 (10)
same,% cures,[2]; [5],0%
same,# of regressed tumors (total),[2]; [6],0 (10)
same,T/C,[2]; [6],0.28
same,# of confirmed cures (total),[2]; [6],0 (10)
same,# of tumors with TV ≤ 4 mm^3 (total),[2]; [6],0 (10)
same,% cures,[2]; [6],0%
same,tumor free animals / cures (in words),[2],did neither lead to tumor free animals
same,Mortalities,"[3]; female, NMRI nu/nu, mouse, in vivo, po, 8 mg/kg, 21 day",0/10
same,Mortalities,"[3]; female, NMRI nu/nu, mouse, in vivo, po, 10 mg/kg, 21 day",0/10
same,Mortalities,"[3]; female, NMRI nu/nu, mouse, in vivo, po, 16 mg/kg, 21 day",0/10
same,Body-weight change,"[3]; mouse, in vivo, po, 8 mg/kg",0.9 ± 0.8 g
same,Body-weight change,"[3]; mouse, in vivo, po, 10 mg/kg",1.0 ± 1.2 g
same,Body-weight change,"[3]; mouse, in vivo, po, 16 mg/kg",1.1 ± 0.9 g
"Nc1ccn([C@@H]2O[C@H](CO)[C@@H](O)C2(F)F)c(=O)n1 [Gemcitabine, gemcitabine, reference compound]","plasma concentrations, single agents versus combination",[1],did not change significantly
same,# of regressed tumors (total),[2]; [7],4 (10)
same,T/C,[2]; [7],0.03
same,# of confirmed cures (total),[2]; [7],0 (10)
same,# of tumors with TV ≤ 4 mm^3 (total),[2]; [7],1 (10)
same,% cures,[2]; [7],0%
same,tumor free animals / cures (in words),[2],did not lead to tumor free animals (no cures)
same,tumor regression (in words),[2]; single agent treatment (BAL101553 even at 16 n/kg; Gemcitabine SoC),induced regression in some of the animals
same,Mortalities,"[3]; Gemcitabine i.v. 240 mg/kg qw (h:0) x6, day 21 after first dose, 1 animal culled on day 8 (body-weight loss of more than 20%)",1/10*
same,Body-weight change,"[3]; mouse, in vivo, iv, 240 mg/kg",0.9 ± 0.8 g
